Source: PubChem BioAssay (NCI)
Several values for one entry are separate records, joined by “and”; a condition that tells them apart may be missing. Identical values can stand only once.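 48-hour exposure; five concentrations; linearly interpolated endpoints. Abbreviation: GI50, concentration required for 50% inhibition of growth. TGI denotes the concentration required for complete inhibition of growth.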

Key:
Assay in all cases: DTP human tumour cell line panel, 48 h
[1] = system: T-47D breast
[2] = system: SR leukemia
[3] = system: SF-268 CNS
[4] = system: HS 578T breast
[5] = system: HL-60(TB) leukemia
[6] = system: COLO 205 colon
[7] = system: HOP-62 NSCLC
[8] = system: 786-0 renal
[9] = system: NCI-H23 lung
[10] = system: PC-3 prostate

| Structure (SMILES) | TGI [1] [µM] | TGI [2] [µM] | TGI [3] [µM] | TGI [4] [µM] | TGI [5] [µM] | TGI [6] [µM] | TGI [7] [µM] | TGI [8] [µM] | TGI [9] [µM] | TGI [10] [µM] | GI50 [1] | GI50 [7] | GI50 [9] | GI50 [10] |
| --- | --- | --- | --- | --- | --- | --- | --- | --- | --- | --- | --- | --- | --- | --- |
| Cc1cc(C)cc(Nc2nnc3n2S(=O)(=O)c2cc(C)c(Cl)cc2S3)c1 | > 100 | 13.9 | 31.1 | 26.9 | > 100 | > 100 | 41.6 | > 100 | 19.2 | 10.1 | – | – | – | – |
| COc1ccc2c(c1)CC[C@@H]1[C@@H]2CC[C@]2(C)/C(=N/OCCN3CCCC3)CC[C@@H]12 | 9.64 | 4.49 | 14.4 | 7.29 | 5.53 | 3.06 | 4.67 | 3.37 | 19.5 | 13.5 | – | – | – | – |
| Cn1c(N/N=C/c2ccccc2)nc(-c2ccc3c(c2)OCO3)c(C#N)c1=O | > 100 | > 100 | > 100 | > 100 | > 100 | > 100 | > 100 | > 100 | > 100 | > 100 | – | – | – | – |
| CC12NC(=C(C#N)C#N)C(C#N)=C3NC(N)=C(C#N)C(=C31)Oc1ccccc12 (centres undefined) | > 100 | > 100 | > 100 | > 100 | > 74.9 | > 100 | > 38.3 | > 100 | > 100 | > 100 | – | – | – | – |
| C[C@@H]1C[C@H]2OC(=O)[C@@]3(C)CCC[C@@](C)([C@@H]23)[C@@]1(O)CCc1ccoc1 | > 100 | > 88.9 | > 100 | > 100 | > 88.6 | > 100 | > 100 | > 100 | > 100 | > 100 | – | – | – | – |
| COC(=O)C1OC(O[C@H]2CC[C@]3(C)[C@H]4CC=C5[C@@H]6CC(C)(C)CC[C@]6(C(=O)OC)CC[C@@]5(C)[C@]4(C)CC[C@H]3C2(C)C)C(O)C(O)C1O (some centres undefined) | 40.9 | 14.4 | 39.3 | 46.8 | 36.7 | 29.9 | 31.9 | 19.2 | 32.4 | 28.7 | – | – | – | – |
| Cc1ccc(S(=O)(=O)N(CC(O)COc2ccccc2)c2c(F)c(F)cc(F)c2F)cc1 (centres undefined) | 78.3 | 28.5 | 38.2 | 50.8 | 19.7 | 29.1 | 52.6 | 58 | 43.2 | 45 | – | – | – | – |
| c1ccc(CN2CCC(=NN3CCCCC3)CC2)cc1 | > 100 | > 100 | > 100 | > 100 | 43.9 | 99.5 | > 100 | > 100 | > 100 | > 100 | – | – | – | – |
| CCCNC1=C2C[C@@H](C)C[C@@H](OC)[C@@H](OC(=O)CCCN)[C@H](C)/C=C(\C)[C@@H](OC(N)=O)[C@H](OC)/C=C\C=C(/C)C(=O)NC(=CC1=O)C2=O | 28.5 | > 23.8 | 36.7 | 60.9 | 8.01 | 12.1 | 31.3 | 53.9 | 29.4 | 26.9 | – | – | – | – |
| C=C1C(=O)OC2C1CCC(=C)C1CC(O)C(=C)C12 (centres undefined) | 42.8 | 10.8 | 31.7 | > 100 | 5.79 | 6.89 | 49.8 | 19.6 | 34 | 28 | – | – | – | – |
| C=CCn1c(-c2cc(C(C)(C)C)c(O)c(C(C)(C)C)c2)cs/c1=N\C(P(=O)(O)O)P(=O)(O)O | > 100 | > 100 | > 100 | > 100 | > 100 | > 100 | > 100 | > 100 | > 100 | > 100 | – | – | – | – |
| Cc1cc(OCc2nc(N)nc(N)c2-c2ccc(Cl)c(Cl)c2)ccc1[N+](=O)[O-] | > 51.5 | 0.106 | 36.5 | > 88.2 | 3.56 | 18.9 | 12 | 22.3 | 4.79 | 11.7 | – | – | – | – |
| COc1ccc(/C=C2/N=C(N/N=C\C(O)C(O)C(O)CO)NC2=O)cc1 (centres undefined) | > 100 | > 100 | > 100 | > 100 | > 100 | > 100 | > 100 | > 100 | > 100 | > 100 | 87.7 µM and 33.2 µM | > 100 µM and 49.6 µM | > 100 µM and 42.1 µM | > 100 µM and 39.3 µM |
| COc1ccccc1C1C2=C(COC2=O)Oc2cc3c(cc21)OCO3 (centres undefined) | > 100 | > 100 | 85.8 | 13.3 | 11.6 | 14.2 | > 100 | 28 | > 100 | > 100 | – | – | – | – |
| CN1C(=O)N(C)C2(CCN(CC(CC3OCCO3)c3ccc(F)cc3)CC2)C1=O (centres undefined) | > 100 | > 100 | > 100 | > 100 | > 100 | > 100 | > 100 | > 100 | > 100 | > 100 | – | – | – | – |
| N/C(=N\N=C\c1cc2ccccc2s1)c1cnccn1 | > 100 | > 100 | > 100 | > 100 | > 100 | > 100 | > 100 | > 100 | > 100 | > 100 | – | – | – | – |

| Structure (SMILES) | TGI [1] [µM] | TGI [2] [µM] | TGI [3] [µM] | TGI [4] [µM] | TGI [5] [µM] | TGI [6] [µM] | TGI [7] [µM] | TGI [8] [µM] | TGI [9] [µM] | TGI [10] [µM] | GI50 [1] | GI50 [7] | GI50 [9] | GI50 [10] |
| --- | --- | --- | --- | --- | --- | --- | --- | --- | --- | --- | --- | --- | --- | --- |
| O=c1oc2ccc([N+](=O)[O-])cc2nc1/C=C(\O)c1ccccc1 | > 100 | > 100 | > 100 | > 100 | > 100 | > 100 | > 100 | > 100 | > 100 | > 100 | – | – | – | – |
| OC1(c2ccccc2)CC2CCC(C1)N2CCCC(O)(c1ccccc1)c1ccccc1 (centres undefined) | 50.3 | > 100 | 30.1 | 18.7 | > 100 | 30.8 | 29 | 25.6 | 25.7 | 16.2 | – | – | – | – |
| COc1ccccc1N1CCN(CCCCNC(=O)c2ccc([N+](=O)[O-])o2)CC1 | 40.3 | > 58.3 | 35.4 | 41 | 26.1 | 6.79 | 16.5 | 21.4 | 15.9 | 39.8 | – | – | – | – |
| Oc1cc(O)c2c(c1)O[C@H](c1ccc(O)c(O)c1)[C@@H](O)C2 | > 100 | > 100 | > 100 | > 100 | > 100 | > 100 | > 100 | > 100 | > 100 | > 100 | – | – | – | – |
| Cc1cccc2c(N)c3cccc(C(=O)NCC[N+](C)(C)Cc4ccc([N+](=O)[O-])n4C)c3nc12 | > 85.9 | 36.6 | 61.9 | 41 | 29.2 | 66.7 | 61.7 | > 63.9 | > 65.1 | > 75.2 | – | – | – | – |
| Cc1ccc(C2(O)c3ccccc3C(=O)N(C)C2(O)c2ccc(C)cc2)cc1 (centres undefined) | > 100 | 13.2 | 50.6 | 46.9 | 40.3 | > 100 | 49.5 | > 100 | > 100 | > 100 | – | – | – | – |
| O=Cc1c2c(cc3c1CC1(C3)Cc3cc4c(c(C=O)c3C1)CCCC4)CCCC2 | > 31.6 | 22.2 | > 100 | > 31.6 | > 100 | > 31.6 | > 31.6 | > 31.6 | > 31.6 | > 31.6 | – | – | – | – |
| O=[N+]([O-])c1cc(C2(N3CCCCC3)CCCCC2)sc1Br | 4.64 | 10.7 | 28.1 | > 58.5 | 5.24 | 17.7 | 17.3 | 39.2 | 26.5 | 13.1 | – | – | – | – |
| O=S(=O)(O)c1ccc2c(N=Nc3cccc4ccccc34)c(O)ccc2c1 | > 100 | > 100 | > 100 | > 100 | > 100 | > 100 | > 100 | > 100 | > 100 | > 100 | – | – | – | – |
| CN(C)CCCNC(=O)N/N=C/c1ccc(O)cc1 | > 100 | > 100 | > 100 | > 100 | > 100 | > 100 | > 100 | > 100 | > 100 | > 100 | – | – | – | – |
| O=C(O)c1cc(N=Nc2ccc([N+](=O)[O-])cc2)ccc1O | > 100 | > 100 | > 100 | > 100 | 73.7 | > 100 | > 100 | > 100 | > 100 | > 100 | – | – | – | – |
| COc1ccccc1-n1cnc2c1NC(C)(C)N=C2C(N)=O | > 100 | > 100 | > 100 | > 100 | > 100 | > 100 | > 100 | > 100 | > 100 | > 100 | – | – | – | – |
| CC(C)C[S+]1C2=C([O-])CC(C)(C)CC2=Nc2ccccc21 (centres undefined) | > 100 | 75.8 | > 100 | > 100 | > 100 | > 100 | > 100 | > 100 | > 100 | > 100 | – | – | – | – |
| O=C1c2ccccc2N=C(c2cc3c(cc2Cl)Sc2nccn2S3(=O)=O)OS(=O)(=O)N1c1ccccc1 | > 100 | 26.2 | > 100 | > 100 | 60.7 | 42.6 | 76.2 | > 100 | 66.2 | > 100 | – | – | – | – |
| COc1ccc2[nH]c3cc4c(=O)c5cc(OC)ccc5[nH]c4cc3c(=O)c2c1 | > 100 | > 100 | > 100 | > 100 | 36.2 | > 100 | > 100 | > 100 | > 100 | > 100 | – | – | – | – |
| c1ccc(-c2cnc(SC(c3ccccc3)c3ccccc3)[nH]2)cc1 | 54.7 | 64.3 | > 100 | > 100 | 40.7 | 44.1 | > 100 | > 100 | 52.5 | 84.7 | – | – | – | – |
